# From patent publication US4663344A, “Anti-inflammatory and analgesic 3-hydroxybenzo[b]thiophene derivatives, compositions, and method of use therefor” (Merck & Co., Inc., priority 1985, dated 1987)
# Biological target: T1, RBL Cell 5-Lipoxygenase (Rattus norvegicus, UniProt P12527)
# T1 construct: RBL Cell 5-Lipoxygenase; endogenous in cells; host or cells: RBL cells
# T1 sequence (P12527 1-673): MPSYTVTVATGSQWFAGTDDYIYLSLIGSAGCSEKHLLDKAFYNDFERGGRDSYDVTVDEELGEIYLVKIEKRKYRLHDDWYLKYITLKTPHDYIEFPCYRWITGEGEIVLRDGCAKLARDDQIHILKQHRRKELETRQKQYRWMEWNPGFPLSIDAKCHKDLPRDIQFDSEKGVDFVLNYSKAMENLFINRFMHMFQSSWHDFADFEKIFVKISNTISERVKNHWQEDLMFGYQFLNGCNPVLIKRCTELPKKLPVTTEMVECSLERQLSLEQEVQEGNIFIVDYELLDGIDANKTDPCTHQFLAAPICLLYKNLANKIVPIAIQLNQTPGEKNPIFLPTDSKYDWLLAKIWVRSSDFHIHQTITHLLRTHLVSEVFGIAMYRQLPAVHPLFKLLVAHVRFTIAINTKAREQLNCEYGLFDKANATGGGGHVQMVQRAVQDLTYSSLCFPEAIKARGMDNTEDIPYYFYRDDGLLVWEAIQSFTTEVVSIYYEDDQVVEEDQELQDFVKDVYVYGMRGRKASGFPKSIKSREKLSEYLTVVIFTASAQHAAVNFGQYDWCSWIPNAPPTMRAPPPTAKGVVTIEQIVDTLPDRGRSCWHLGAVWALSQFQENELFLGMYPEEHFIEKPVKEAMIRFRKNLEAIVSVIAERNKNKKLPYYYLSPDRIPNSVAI
# Assay: Inhibition of RBL Cell 5-Lipoxygenase
# Assay type: biochemical
# Details: read-out: Percent Inhibition (conc.)
# From the text: Protocol published in R. W. Egan et al., "Advances in Prostaglandin, Thromboxane, and Leukotriene Research," Vol. 11 (edited by B. Samuelson et al., Raren Press, N.Y., 1983), p. 151.
SMILES,inhibition at 15 µM,also measured
"COC(=O)C=Cc1sc2ccccc2c1O [Example 20, Methyl 3-(3-hydroxybenzo[b]thiophen-2-yl)acrylate]",–,inhibition at 3.6 µM (3.6 μM): 100%
"CC(=O)Oc1c(C=C(c2ccccc2)c2ccccc2)sc2ccc(C(F)(F)F)cc12 [Example 27, 2-(2,2-diphenylethenyl)-3-acetoxy-5-trifluoromethyl benzo[b]thiophene]",–,inhibition at 22 µM: 95%
"CC(=O)Oc1c(CSc2nc(-c3ccccc3)c(-c3ccccc3)[nH]2)sc2ccccc12 [Example 25, 2-(3-acetoxybenzo[b]thien-2-ylmethyl)thio-4,5-diphenylimidazole]",–,inhibition at 22 µM: 52%
"CC(=O)Oc1c(-c2ccccc2)sc2ccc(C(F)(F)F)cc12 [Example 5, 3-Acetoxy-2-Phenyl-5-Trifluoromethylbenzo[b]thiophene]",> 95%,–
COC(=O)CCc1sc2ccc(C(F)(F)F)cc2c1OC(C)=O [Example 22],–,inhibition at 0.06 µM (0.06 μM): > 95%
"Cc1cccc(-c2sc3ccc(C(F)(F)F)cc3c2O)c1 [Example 16, 3-Hydroxy-2-(m-methylphenyl)-5-trifluoromethylbenzo[b]thiophene]",–,inhibition at 1 µM: > 95%
"Oc1c(-c2ccccc2)sc2ccc(C(F)(F)F)cc12 [Example 4, 3-Hydroxy-2-phenyl-5-trifluoromethylbenzo[b]thiophene]",–,inhibition at 5 µM (5 μM): > 95%
"CC(=O)Oc1c(Cc2ccccc2)sc2ccc(Cl)cc12 [Example 2, 3-Acetoxy-2-Benzyl-5-Chlorobenzo[b]thiophene]",> 95%,–
"CC(=O)Oc1c(C)sc2ccc(C(F)(F)F)cc12 [Example 23, 2-Methyl-3-Acetoxy-5-trifluoromethylbenzo[b]thiophene]",–,inhibition at 0.4 µM (0.4 μM): 100%
"CCCCc1sc2ccc(Cl)cc2c1OC(C)=O [Example 1, 3-Acetoxy-2-Butyl-5-Chlorobenzo[b]thiophene]",> 95%,–
"CC(=O)Oc1cccc2sc(-c3ccccc3)c(OC(C)=O)c12 [Example 7, 3,4-Diacetoxy-2-Phenylbenzo[b]thiophene]",–,inhibition at 1 µM: > 95%
"COC(=O)C=Cc1sc2ccccc2c1OC(C)=O [Example 21, Methyl 3(3-acetoxybenzo[b]thiophen-2-yl)acrylate]",–,inhibition at 0.036 µM (0.036 μM): 71%

# The next lines start with results.
inhibition at 15 µM,SMILES,also measured
> 95%,"Oc1cccc2sc(-c3ccccc3)c(O)c12 [Example 8, 3,4-dihydroxy-2-phenylbenzo[b]thiophene]",–
> 95%,"COc1ccc(-c2sc3ccc(C(F)(F)F)cc3c2O)cc1 [Example 15, 3-Hydroxy-2-(p-methoxyphenyl)-5-trifluoromethylbenzo[b]thiophene]",–
> 95%,"Oc1c(-c2cccc(Cl)c2)sc2ccc(C(F)(F)F)cc12 [Example 12, 3-Hydroxy-2-(m-chlorophenyl)-5-trifluoromethyl-benzo[b]thiophene]",–
> 95%,"Oc1c(-c2ccccc2)sc2ccc(Cl)cc12 [Example 18, 5-Chloro-3-hydroxy-2-phenylbenzo[b]thiophene]",–
> 95%,"COc1cccc2sc(-c3ccccc3)c(O)c12 [Example 6, 3-Hydroxy-4-Methoxy-2-Phenylbenzo[b]thiophene]",–
> 95%,"Oc1c(-c2cccc(C(F)(F)F)c2)sc2ccc(C(F)(F)F)cc12 [Example 11, 3-Hydroxy-5-Trifluoromethyl-2-(m-trifluoromethylphenyl)-Benzo[b]thiophene]",–
